Reference: US11180762B2, “Methods and compositions for the treatment of cancer” (CHILDREN'S MEDICAL CENTER CORPORATION, priority 2014, dated 2021)
pKd: −log10 of the molar value. Entries after “also recorded” stand apart in the source; their conditions may differ. Read-outs that look alike come from different tables or passages of the source.

How the values were obtained:
4T1 and 67NR cells = assay: EpCAM aptamer uptake by mouse cell lines; format: cell-based
[1] = test system: EpCAM+ MDA-MB-468 and BPLER cells vs BPE cells; assay: Uptake of fluorescently labeled aptamer/AsiC by breast cell lines (flow cytometry, microscopy); format: cell-based, human; settings: Cy3 at 5'-end, 22 and 43 hr
From the text: To verify selective uptake by EpCAM+ tumor cells, confocal fluorescence microscopy was used to compare internalization of the EpCAM aptamer, fluorescently labeled at the 5′-end with Cy3, in EpCAM+ MDA-MB-468 TNBC cells and BPE, EpCAM^dim immortalized breast epithelial cells (data not shown). […] As a consequence, cellular internalization is slow since it likely occurs via receptor recycling, rather than the more rapid process of activation-induced endocytosis.
(§1) For uptake and silencing treatment, cells were plated at low density (10,000 cells/well in 96-well plates) and treated immediately. All AsiC and siRNA treatments were performed in either OptiMEM or WIT medium. Cell viability was assessed by CellTiter-Glo (Promega) or by Trypan-Blue staining in 96-well plates.
For flow cytometry, cells were stained as previously described (Yu, F. et al (2007). let-7 Regulates Self Renewal and Tumorigenicity of Breast Cancer Cells. Cell 131, 1109-1123. ), briefly, direct immunostaining of EpCAM and AKT1 was performed using 1:50 dilutions of hAb for 30-60 minutes at 4° C. (BioLegend/BD). Cells were stained in PBS containing 0.5% FCS, 1 mM EDTA, and 25 mM HEPES. Samples were washed twice in the same buffer. Data was acquired using FACS-Canto II (BD Biosciences). Analyses were performed in triplicate and 10,000 gated events/sample were counted. All data analysis was performed using FlowJo (Treestar Inc.).

MB468-luc tumors = assay: Tumor inhibition, EpCAM+ MB468-luc xenograft; format: in vivo, nude mice; settings: 5 mg/kg sc every 3 d (72 h) for 2 wks
Method: For tumor inhibition studies, MB468-luc (5×10^6) and MB231-luc-mCherry (5×10^5) cells trypsinized with Tryple Express (Invitrogen), resuspended in a 1:1 WIT-Matrigel solution and injected subcutaneously in the flank of 8-week old female Nu/J mice (Stock #002019, Jackson Laboratories). Tumors size was analyzed daily using the IVIS Spectra, after 5 days tumors were clearly visible. […] Mice were treated every 72 h for 14 days.

human EpCAM = human EpCAM (Homo sapiens, UniProt P16422); settings: 19 nt aptamer; read-out: affinity for human EpCAM; cited from earlier work
Chain of human EpCAM (P16422 24-314): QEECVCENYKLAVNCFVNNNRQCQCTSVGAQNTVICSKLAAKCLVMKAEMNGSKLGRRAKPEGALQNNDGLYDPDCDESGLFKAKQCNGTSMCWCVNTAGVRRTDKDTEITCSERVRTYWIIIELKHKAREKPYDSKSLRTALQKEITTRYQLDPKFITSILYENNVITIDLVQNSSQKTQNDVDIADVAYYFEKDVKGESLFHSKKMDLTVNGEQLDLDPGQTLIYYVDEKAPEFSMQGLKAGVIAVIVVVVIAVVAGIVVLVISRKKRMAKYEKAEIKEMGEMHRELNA

[2] = test system: basal-A, luminal and basal-B breast cancer cell lines; assay: Cell proliferation/viability by CellTiter-Glo in 10 breast cancer cell lines; format: cell-based, human
From the text: To explore whether EpCAM-AsiCs could be used as anti-tumor agents in breast cancer, we examined by CellTiterGlo assay the effect of AsiCs directed against PLK1, a kinase required for mitosis, on survival of 10 breast cancer cell lines that included 5 basal-A TNBCs, 2 luminal cell lines, and 3 basal-B TNBCs. […] The anti-proliferative effect strongly correlated with EpCAM expression (FIG. 2B). The reduction in viable EpCAM+ cells after knockdown was due to induction of apoptosis, assessed by annexin V-propidium iodide staining and caspase activation (data not shown). To determine whether ligation of the EpCAM aptamer contributed to the anti-proliferative effect of the EpCAM-AsiC, we compared survival of cells that were treated with the PLK1 EpCAM-AsiC with cells treated with the aptamer on its own (FIG. 2C). […] Thus the PLK1 EpCAM-AsiC asserts its specific anti-tumor effect on EpCAM+ breast cancer cells by gene knockdown.
as §1

mouse EpCAM = molecular target: T1, mouse EpCAM (Mus musculus, UniProt Q99JW5); assay: EpCAM aptamer binding to mouse EpCAM
T1 construct: endogenous in cells; host or cells: 4T1 (EpCAM high) and 67NR (EpCAM minimal) mouse cancer cell lines
T1 sequence (Q99JW5 24-315): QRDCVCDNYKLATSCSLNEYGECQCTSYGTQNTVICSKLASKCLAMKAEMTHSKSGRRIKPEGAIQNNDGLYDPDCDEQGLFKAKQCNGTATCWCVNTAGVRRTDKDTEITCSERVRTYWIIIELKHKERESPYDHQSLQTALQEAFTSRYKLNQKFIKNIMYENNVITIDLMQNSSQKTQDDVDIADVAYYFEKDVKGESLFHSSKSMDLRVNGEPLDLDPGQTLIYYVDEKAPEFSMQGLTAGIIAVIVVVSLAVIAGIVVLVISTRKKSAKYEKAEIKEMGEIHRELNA

## EpCAM aptamer: 19 nt RNA aptamer to human EpCAM (Shigdar 2011); GCGACUGGUUACCCGGUCGUUU, SEQ ID NO: 33 (GCGACUGGUUACCCGGUCGUUU; listed as RNA, chemistry not given here) [reference compound]
4T1 and 67NR cells
  uptake by 4T1 and 67NR cells: not taken up by neither 4T1 nor 67NR cells
[1]
  uptake of Cy3-labeled aptamer, MDA-MB-468 vs BPE: Only MDA-MB-468 cells took up the aptamer
[1]; listed as EpCAM-Aptamer
  uptake of Cy3-labeled aptamer, MDA-MB-468 vs BPE: selective AsiC uptake in EpCAM+ cells
MB468-luc tumors
  growth of EpCAM+ MB468 tumors: continued to grow without significant change; also recorded: neither of which had any anti-tumor activity
Human EpCAM
  pKd: 7.92
[2]
  cell proliferation/viability, all cell lines tested: did not have a reproducible effect on survival of any breast cancer cell lines; also recorded: had no effect on cell proliferation
  cell proliferation/viability, basal-A and luminal (EpCAM+) lines: does not affect cell growth or viability of EpCAM+ breast tumor cell lines
[2]; listed as EpCAM-aptamer
  cell proliferation/viability, all cell lines tested: None of the cell lines treated with EpCAM-aptamer displayed decrease in cell viability; also recorded: didn't effect cell viability in any of the cell lines
Mouse EpCAM
  binding to mouse EpCAM: does not bind to mouse EpCAM; also recorded: does not recognize mouse EpCAM
Mouse EpCAM; listed as EpCAM aptamers
  binding to mouse EpCAM: do not bind mouse EpCAM
